Source: patent US4693884A, “Technetium-99m triphosphonates and tetraphosphonates for the scintigraphic visualization of res-containing organs and lymph vessels, and a process for their preparation” (Hoechst Aktiengesellschaft, priority 1982, dated 1987)
Each block holds one compound with its values, some of them ahead of it.

Legend:
[1] = Example 6: distribution of activity over the organs in rats, PTP; type: in vivo, Sprague-Dawley rats; settings: 30 min after injection; femoral vein; mean, n=6
Method: 3.5 g of 1,1,3,3-propanetetraphosphonic acid (PTP) are dissolved in 250 ml of double-distilled water, and the solution is adjusted to pH 6 with 1N NaOH. 210 mg of SnCl2.2H2 O, which are dissolved in 4.2 ml of 0.2N HCl, are added to this solution, and the pH is again adjusted to 6. The mixture is made up to 350 ml and individual 1 ml portions are prepared. (All the operations up to preparation of the individual portions are carried out under protective N2 gas.) The contents are frozen and freeze-dried. One unit contains 10 mg of PTP and 0.6 mg of SnCl2.2H2 O.
After storing for some weeks, the lyophilizate is dissolved in 10 ml of physiologic saline which contains 2 mCi of ^99m Tc-pertechnetate. After 30 min, Sprague-Dawley rats (n=6) weighing about 200 g each receive 0.1 ml of this solution injected into the femoral vein. The animals are sacrificed with ether 30 min after injection, and the distribution of the activity over the organs is determined. The mean figures below result (as percentage of the dose administered): […]

[2] = Example 7: elimination from the blood and renal excretion; type: in vivo, dog (beagle)
Method: (§1) A labeling unit prepared as in Example 6 is made ready for injection with 5 ml of physiologic saline containing 10 mCi of ^99m Tc-pertechnetate. 1 ml of this solution is injected into the ear vein of a dog (beagle) weighing 18 kg, and the change in activity with time over the abdominal cavity is followed using a gamma camera by the ROI technique. It emerges that the uptake of activity by the liver is complete after about 10 min. The lung and kidneys are not imaged.
The elimination from the blood and the renal excretion are also determined on the same animal. […] About 2.3% of the administered activity is excreted with the urine within the first 8 hours.

[3] = Organ distribution of 99mTc-labeled substances in rats 30 minutes after injection as a function of the amount of substance administered; type: in vivo; settings: for Blood/ml / Kidneys / Liver / Lung / Remainder of body / Spleen / Thyroid / tissue uptake at 0.5 h: 30 min after injection, n = 3; for tissue uptake at 0.5 h: rat, femur, iv, 0.05 mg
Method: Assuming that 2-20 mg of TPB, ETP, PTP or phytate are administered to humans, and assuming that the weight of human is 80 kg, this corresponds to an amount administered of 25-250 μg/kg of body weight. Calculating on the basis of the body weight of rats weighing 200 g, then administration of 5-50 μg of TPB, ETP, PTP or phytate per rat exactly reflects the relationships.
Organ distribution of ^99m Tc TPB, ^99m TC ETP and ^99m Tc
phytate in rats (n = 3) 30
minutes after injection as a function of the amount of substance
(all data as a percentage of the amount of activity administered)

[4] = Comparison of 99mTc TPB, 99mTc PTP and 99mTc phytate after intravenous injection to dogs; type: in vivo
[5] = Accumulation of phosphoric acid derivatives investigated as technetium-99m diagnostic agents (bone, liver, RES); settings: in vivo
Excerpt: It is possible to use phosphoric acid derivatives, particularly organic phosphonic acid derivatives, for bone scintigraphy. Many compounds have been investigated in the search for derivatives suitable as a technetium-99m diagnostic agent for bone.

[6] = Example 7: change in activity over the abdominal cavity followed with gamma camera (ROI technique); type: in vivo, dog (beagle); settings: ear vein
Method: as §1

[7] = in vivo; cited from earlier work
[8] = second amount column (printed 50 μg)
[9] = third amount column (printed 50 μg)

Kidneys [1]: 0.067 percentage of the dose adminis
Liver [1]: 94.0 percentage of the dose adminis
Remainder of body [1]: 4.8 percentage of the dose adminis
Spleen [1]: 1.9 percentage of the dose adminis
Thyroid [1]: 0.034 percentage of the dose adminis
bladder + urine [1]: 0.023 percentage of the dose adminis
blood (1 ml) [1]: 0.083 percentage of the dose adminis
bone [1]: 0.7 percentage of the dose adminis
lungs [1]: 0.23 percentage of the dose adminis
clearance from the blood, half-life t1 ([2]; ear vein, first phase): 3.25 min
share of phase t1 in clearance from the blood ([2]; ear vein, first phase): 97%
clearance from the blood, half-life t2 ([2]; ear vein, second phase): 20.3 min
share of phase t2 in clearance from the blood ([2]; ear vein, second phase): 2.4%
clearance from the blood, half-life t3 ([2]; ear vein, third phase): 500 min
share of phase t3 in clearance from the blood ([2]; ear vein, third phase): 0.6%
administered activity excreted with the urine ([2]; within the first 8 hours): About 2.3 % of the administered activity
Blood/ml ([3]; (50 μg)): 0.055 percentage of the amount of ac
Blood/ml [3, 8]: 0.11 percentage of the amount of ac
Blood/ml [3, 9]: 0.086 percentage of the amount of ac
accumulation of activity in the kidneys, blood, femur and remainder of the body compared with phytate ([3]; all amounts of substance investigated): clearly lower than with phytate
tissue uptake at 0.5 h ([3]; (50 μg)): 0.052 %ID/g
tissue uptake at 0.5 h [3, 8]: 0.088 %ID/g
tissue uptake at 0.5 h [3, 9]: 0.089 %ID/g
excretion of activity with the urine ([4]; 30 min after injection, intravenous, dogs): 0.05 % of the test dose
excretion of activity with the urine, compared with phytate ([4]; intravenous, dogs): markedly less
decrease in activity via the liver after accumulation in the liver is complete ([4]; intravenous, dogs, compared with phytate): slower
accumulation in bone [5]: virtually not at all
time at which uptake of activity by the liver is complete [6]: about 10 min
Compound: O=P(O)(O)C(CC(P(=O)(O)O)P(=O)(O)O)P(=O)(O)O [PTP, propane-1,1,3,3-tetraphosphonic acid]
Kidneys ([3]; (50 μg)): 0.16 percentage of the amount of activity administered
Liver ([3]; (50 μg)): 91.8 percentage of the amount of activity administered
Lung ([3]; (50 μg)): 0.30 percentage of the amount of activity administered
Remainder of body ([3]; (50 μg)): 9.3 percentage of the amount of activity administered
Spleen ([3]; (50 μg)): 1.31 percentage of the amount of activity administered
Thyroid ([3]; (50 μg)): 0.05 percentage of the amount of activity administered
Kidneys [3, 8]: 0.37 percentage of the amount of activity administered
Liver [3, 8]: 84.2 percentage of the amount of activity administered
Lung [3, 8]: 0.45 percentage of the amount of activity administered
Remainder of body [3, 8]: 16.0 percentage of the amount of activity administered
Spleen [3, 8]: 1.23 percentage of the amount of activity administered
Thyroid [3, 8]: 0.04 percentage of the amount of activity administered
Kidneys [3, 9]: 0.38 percentage of the amount of activity administered
Liver [3, 9]: 82.7 percentage of the amount of activity administered
Lung [3, 9]: 0.43 percentage of the amount of activity administered
Remainder of body [3, 9]: 18.4 percentage of the amount of activity administered
Spleen [3, 9]: 1.10 percentage of the amount of activity administered
Thyroid [3, 9]: 0.05 percentage of the amount of activity administered
suitability as diagnostic agent for visualization of RES-containing organs compared with 99mTc phytate ([3]; deduction from the animal experiments): unambiguously superior
accumulation in the liver [5]: very preferentially accumulated in the liver

excretion of activity with the urine ([4]; dog, in vivo, iv, 0.5 h): 6.6 % of the test dose
accumulation in bone [5]: higher
accumulation in the RES [5]: lower
Compound: phytate [reference compound]
accumulation of activity in the RES [7]: low compared with the products mentioned above
